Tested on: 922993-354-T-J3-PDC complex spheroid viability
Assay: Anticancer human tumor 922993-354-T-J3-PDC patient-derived endometrial carcinoma cell line growth inhibition [POLQ]
Conditions: for IC50: curve of first compound; for viability, T/C: stronger effect = lower value; active means viability on the fitted dose curve at most 10% of control; inactive means the rest
Procedure, shortened: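 PDC + HUVEC + MSC complex spheroids; POLQ inhibitors ± partner drugs; top conc. at/near clinical Cmax, else 10 microM (SN-38 1 microM), half-log dilutions; 37 degrees C, 5% CO2.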

[1] = second compound 0.0316 µM, first compound 0.0316 µM
[2] = second compound 0.0316 µM, first compound 0.1 µM
[3] = second compound 0.0316 µM, first compound 0.316 µM
[4] = second compound 0.0316 µM, first compound 1 µM
[5] = second compound 0.0316 µM, first compound 3.16 µM
[6] = second compound 0.0316 µM, first compound 10 µM
[7] = second compound 0.1 µM, first compound 0.0316 µM
[8] = second compound 0.1 µM, first compound 0.1 µM
[9] = second compound 0.1 µM, first compound 0.316 µM
[10] = second compound 0.1 µM, first compound 1 µM
[11] = second compound 0.1 µM, first compound 3.16 µM
[12] = second compound 0.1 µM, first compound 10 µM
[13] = second compound 0.316 µM, first compound 0.0316 µM
[14] = second compound 0.316 µM, first compound 0.1 µM
[15] = second compound 0.316 µM, first compound 0.316 µM
[16] = second compound 0.316 µM, first compound 1 µM
[17] = second compound 0.316 µM, first compound 3.16 µM
[18] = second compound 0.316 µM, first compound 10 µM
[19] = second compound 1 µM, first compound 0.0316 µM
[20] = second compound 1 µM, first compound 0.1 µM
[21] = second compound 1 µM, first compound 0.316 µM
[22] = second compound 1 µM, first compound 1 µM
[23] = second compound 1 µM, first compound 3.16 µM
[24] = second compound 1 µM, first compound 10 µM
[25] = second compound 3.16 µM, first compound 0.0316 µM
[26] = second compound 3.16 µM, first compound 0.1 µM
[27] = second compound 3.16 µM, first compound 0.316 µM
[28] = second compound 3.16 µM, first compound 1 µM
[29] = second compound 3.16 µM, first compound 3.16 µM
[30] = second compound 3.16 µM, first compound 10 µM
[31] = second compound 10 µM, first compound 0.0316 µM
[32] = second compound 10 µM, first compound 0.1 µM
[33] = second compound 10 µM, first compound 0.316 µM
[34] = second compound 10 µM, first compound 1 µM
[35] = second compound 10 µM, first compound 3.16 µM
[36] = second compound 10 µM, first compound 10 µM
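Further: spheroids exposed to the agents for one week.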
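Wherever viability, T/C is given: 100% = DMSO vehicle control wells.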

CC1COCCN1c1cc(-c2ccnn2C)c2ccnc(-c3ccn[nH]3)c2n1 (stereo unspecified) + COC1C(OC(N)=O)C(O)C(Oc2ccc3c(O)c(NC(=O)c4ccc(O)c(CC=C(C)C)c4)c(=O)oc3c2C)OC1(C)C
active: viability, T/C [11] 8.43% | viability, T/C [12] 10.4% | viability, T/C [18] 11.2% | viability, T/C [23] 8.85% | viability, T/C [24] 10.6% | viability, T/C [29] 7.96% | viability, T/C [30] 11.8% | viability, T/C [35] 9.82% | viability, T/C [36] 10.7%
143 nM: IC50 (second compound 3.16 µM)
121 nM: IC50 (second compound 0.0316 µM)
152 nM: IC50 (second compound 1 µM)
185 nM: IC50 (second compound 0.1 µM)
inactive: viability, T/C [1] 83.5% | viability, T/C [2] 54.2% | viability, T/C [3] 27.8% | viability, T/C [4] 11.2% | viability, T/C [5] 10.4% | viability, T/C [6] 11.8% | viability, T/C [7] 94.4% | viability, T/C [8] 69.9% | viability, T/C [9] 33.7% | viability, T/C [10] 9.37% | viability, T/C [13] 95.1% | viability, T/C [14] 68.4% | viability, T/C [15] 29.5% | viability, T/C [16] 12.7% | viability, T/C [17] 9.09% | viability, T/C [19] 78.6% | viability, T/C [20] 55.4% | viability, T/C [21] 39.7% | viability, T/C [22] 10.2% | viability, T/C [25] 89.9% | viability, T/C [26] 60% | viability, T/C [27] 27.9% | viability, T/C [28] 9.41% | viability, T/C [31] 82% | viability, T/C [32] 53.3% | viability, T/C [33] 26.8% | viability, T/C [34] 8.03%
172 nM: IC50 (second compound 0.316 µM)
117 nM: IC50 (second compound 10 µM)

COc1cc2cc(C(=O)CCC(=O)O)sc2cc1OC + Nc1ccc(C#CCN(C(=O)Cc2ncc(C(F)(F)F)cc2C(F)(F)F)c2ccc(F)cc2)nn1
> 10000 nM: IC50 (second compound 0.0316 µM) | IC50 (second compound 0.1 µM) | IC50 (second compound 0.316 µM) | IC50 (second compound 1 µM) | IC50 (second compound 3.16 µM) | IC50 (second compound 10 µM)
inactive: viability, T/C [1] 104% | viability, T/C [2] 105% | viability, T/C [3] 108% | viability, T/C [4] 102% | viability, T/C [5] 109% | viability, T/C [6] 84.6% | viability, T/C [7] 108% | viability, T/C [8] 105% | viability, T/C [9] 103% | viability, T/C [10] 95.6% | viability, T/C [11] 104% | viability, T/C [12] 78.9% | viability, T/C [13] 102% | viability, T/C [14] 103% | viability, T/C [15] 98.3% | viability, T/C [16] 97.7% | viability, T/C [17] 102% | viability, T/C [18] 82.1% | viability, T/C [19] 102% | viability, T/C [20] 99.6% | viability, T/C [21] 108% | viability, T/C [22] 102% | viability, T/C [23] 103% | viability, T/C [24] 81% | viability, T/C [25] 99% | viability, T/C [26] 102% | viability, T/C [27] 98.5% | viability, T/C [28] 104% | viability, T/C [29] 105% | viability, T/C [30] 84% | viability, T/C [31] 94.6% | viability, T/C [32] 95.2% | viability, T/C [33] 97.7% | viability, T/C [34] 95% | viability, T/C [35] 104% | viability, T/C [36] 78.8%

Cn1ncnc1[C@H]1c2n[nH]c(=O)c3cc(F)cc(c23)N[C@@H]1c1ccc(F)cc1 + COC1C(OC(N)=O)C(O)C(Oc2ccc3c(O)c(NC(=O)c4ccc(O)c(CC=C(C)C)c4)c(=O)oc3c2C)OC1(C)C
> 100 nM: IC50 (second compound 0.0316 µM) | IC50 (second compound 0.1 µM) | IC50 (second compound 0.316 µM) | IC50 (second compound 1 µM) | IC50 (second compound 3.16 µM) | IC50 (second compound 10 µM)
inactive: viability, T/C (second compound 0.0316 µM, first compound 0.000316 µM) 109% | viability, T/C (second compound 0.0316 µM, first compound 0.001 µM) 93.7% | viability, T/C (second compound 0.0316 µM, first compound 0.00316 µM) 98.5% | viability, T/C (second compound 0.0316 µM, first compound 0.01 µM) 104% | viability, T/C [1] 91.8% | viability, T/C [2] 74% | viability, T/C (second compound 0.1 µM, first compound 0.000316 µM) 107% | viability, T/C (second compound 0.1 µM, first compound 0.001 µM) 102% | viability, T/C (second compound 0.1 µM, first compound 0.00316 µM) 105% | viability, T/C (second compound 0.1 µM, first compound 0.01 µM) 99.9% | viability, T/C [7] 96.8% | viability, T/C [8] 79.8% | viability, T/C (second compound 0.316 µM, first compound 0.000316 µM) 108% | viability, T/C (second compound 0.316 µM, first compound 0.001 µM) 107% | viability, T/C (second compound 0.316 µM, first compound 0.00316 µM) 115% | viability, T/C (second compound 0.316 µM, first compound 0.01 µM) 98% | viability, T/C [13] 96.6% | viability, T/C [14] 86.1% | viability, T/C (second compound 1 µM, first compound 0.000316 µM) 105% | viability, T/C (second compound 1 µM, first compound 0.001 µM) 98.6% | viability, T/C (second compound 1 µM, first compound 0.00316 µM) 91.7% | viability, T/C (second compound 1 µM, first compound 0.01 µM) 105% | viability, T/C [19] 94.6% | viability, T/C [20] 84.5% | viability, T/C (second compound 3.16 µM, first compound 0.000316 µM) 93.7% | viability, T/C (second compound 3.16 µM, first compound 0.001 µM) 89.9% | viability, T/C (second compound 3.16 µM, first compound 0.00316 µM) 89.6% | viability, T/C (second compound 3.16 µM, first compound 0.01 µM) 86.3% | viability, T/C [25] 102% | viability, T/C [26] 79.4% | viability, T/C (second compound 10 µM, first compound 0.000316 µM) 88.6% | viability, T/C (second compound 10 µM, first compound 0.001 µM) 75.6% | viability, T/C (second compound 10 µM, first compound 0.00316 µM) 94.7% | viability, T/C (second compound 10 µM, first compound 0.01 µM) 85.7% | viability, T/C [31] 87.1% | viability, T/C [32] 70.7%
